One assay concerns the target T1, P. aeruginosa LpxC (Pseudomonas aeruginosa, UniProt P47205).
T1 construct: made in house
T1 sequence (P47205 1-303): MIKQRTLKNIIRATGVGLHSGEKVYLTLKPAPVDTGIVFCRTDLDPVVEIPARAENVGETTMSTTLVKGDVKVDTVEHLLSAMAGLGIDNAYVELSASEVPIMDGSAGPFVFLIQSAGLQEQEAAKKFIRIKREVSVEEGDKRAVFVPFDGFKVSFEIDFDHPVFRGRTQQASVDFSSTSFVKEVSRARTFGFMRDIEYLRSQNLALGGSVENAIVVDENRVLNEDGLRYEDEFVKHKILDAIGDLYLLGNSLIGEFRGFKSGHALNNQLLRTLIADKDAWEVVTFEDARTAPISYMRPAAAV
Description: P. aeruginosa LpxC Inhibition Assay (LC-MS/MS). It counts as biochemical. The settings on record: 1 nM P. aeruginosa LpxC, 30 min pre-incubation, 2 μM UDP-3-O-(R-3-hydroxydecanoyl)-GlcNAc, pH 7.5. The method, boiled down:
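Compounds were pre-incubated 30 min at room temperature with 1 nM LpxC, then 2 μM UDP-3-O-(R-3-hydroxydecanoyl)-GlcNAc was added in 50 mM sodium phosphate pH 7.5, 0.005% Triton X-100 for 20 min. After acetic acid quench, product was quantified by LC-MS/MS against a calibration curve. IC50 came from a four-parameter logistic fit.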

A further assay relates to E. C. ATCC 25922. As to the kind of experiment: MIC, broth microdilution (CLSI). It counts as cell-based, Escherichia coli. The settings on record: Escherichia coli, ATCC25922, 20 h, read-out: E. C. ATCC 25922 MIC. A digest of the protocol:
(§1)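 CLSI broth microdilution in cation-adjusted Mueller-Hinton broth, about 5×10^5 CFU/mL inoculum, 1% DMSO final, 20 h at 35 °C in ambient air; MIC is lowest concentration preventing visible growth, checked by OD600. For potentiation, rifampicin was included in the inoculum at a fixed sub-inhibitory level.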
Background: In broth dilution the organism is exposed to a series of concentrations in liquid medium.

For assay [1], the system named is A. B. ATCC 19606. Description: MIC, broth microdilution (CLSI). It counts as cell-based, Acinetobacter baumannii. As to conditions: Acinetobacter baumannii, read-out: A. B. ATCC 19606 MIC. A digest of the protocol:
as §1

A further assay has as its system E. C. ATCC 29522. As to the kind of experiment: MIC in the presence of sub-inhibitory rifampicin (potentiation/synergy). It is filed as cell-based, Escherichia coli. The settings on record: +2 μg/ml rifampicin (RIF); broth microdilution, 35° C., 20 hours. A digest of the protocol: as §1
The subject of the next assay is P. A. PAO1 NB52019. As to the kind of experiment: MIC, broth microdilution (CLSI). As to conditions: Pseudomonas aeruginosa, read-out: P. A. PAO1 NB52019 MIC. It counts as cell-based, Pseudomonas aeruginosa. A digest of the protocol: as §1
Assay [2] deals with A. B. ATCC 19606. As to the kind of experiment: MIC in the presence of sub-inhibitory rifampicin (potentiation/synergy). It is filed as cell-based, Acinetobacter baumannii. The settings on record: +2 μg/ml rifampicin (RIF); broth microdilution, 35° C., 20 hours. A digest of the protocol:
as §1

Where [3] appears, read: broth microdilution, 35° C., 20 hours.
[4] abbreviates: ATCC19606, broth microdilution, 35° C., 20 hours.
Setting [5] is: PAO1, broth microdilution, 35° C., 20 hours.

The structures appear in SMILES notation. Like-named read-outs stand apart in the source and are kept apart here. Where only a bound is given, the exact number is not on record here.

One may read the IC50 as the concentration that inhibits the measured activity by half. The low end stands for greater potency in that assay, the high end for weaker potency in that assay. As a reminder, the MIC is the lowest concentration found to suppress growth. In the case of `C/C=C(\C)c1cc(CC[C@](C)(C(=O)NO)S(C)(=O)=O)no1` [Compound 4.3-1, (R,E)-4-(5-(but-2-en-2-yl)isoxazol-3-yl)-N-hydroxy-2-methyl-2-(methylsulfonyl)butanamide], it took 3 nM to reach half-maximal inhibition on P. aeruginosa LpxC (IC50). Moreover, the MIC in the assay with E. C. ATCC 25922 is 32 µg/mL; in the assay with A. B. ATCC 19606 [1] (ATCC19606, 20 h), over 64 µg/mL; with P. A. PAO1 NB52019 (PAO1, 20 h), 2 µg/mL. Further, the “E. C. ATCC 29522 (+2 μg/ml RIF) MIC” value in the assay with E. C. ATCC 29522 is 0.5 µg/mL. For the same compound, the “A. B. ATCC 19606 (+2 μg/ml RIF) MIC” value with A. B. ATCC 19606 [2] came to 8 µg/mL.
For `C[C@@](CCc1cc(/C(F)=C/C2CC2)on1)(C(=O)NO)S(C)(=O)=O` [Compound 4.5-1, (R,Z)-4-(5-(2-cyclopropyl-1-fluorovinyl)isoxazol-3-yl)-N-hydroxy-2-methyl-2-(methylsulfonyl)butanamide], on P. aeruginosa LpxC, the 50% inhibitory concentration (IC50) was under 1 nM. The MIC with E. C. ATCC 25922 (setting [3]) is 2 µg/mL; with A. B. ATCC 19606 [1] (setting [4]) it was over 64 µg/mL; with P. A. PAO1 NB52019 (setting [5]), 0.25 µg/mL. The “E. C. ATCC 29522 (+2 μg/ml RIF) MIC” value in the assay with E. C. ATCC 29522 turned out to be 0.25 µg/mL. Moreover, the “A. B. ATCC 19606 (+2 μg/ml RIF) MIC” value in the assay on A. B. ATCC 19606 [2] is 0.25 µg/mL.
In the case of `C[C@@](CCc1cc(/C=C(\F)C2CC2)on1)(C(=O)NO)S(C)(=O)=O` [Compound 4.7, (R,Z)-4-(5-(2-cyclopropyl-2-fluorovinyl)isoxazol-3-yl)-N-hydroxy-2-methyl-2-(methylsulfonyl)butanamide], the IC50 against P. aeruginosa LpxC is under 1 nM. Further, the minimum inhibitory concentration (MIC) in the assay with E. C. ATCC 25922 (setting [3]) is 8 µg/mL; with A. B. ATCC 19606 [1] (setting [4]), over 64 µg/mL; in the assay on P. A. PAO1 NB52019 (setting [5]) it was 0.5 µg/mL. Besides, in the assay with E. C. ATCC 29522, the “E. C. ATCC 29522 (+2 μg/ml RIF) MIC” value was determined as 0.5 µg/mL. In addition, in the assay on A. B. ATCC 19606 [2], the “A. B. ATCC 19606 (+2 μg/ml RIF) MIC” value was found to be 0.5 µg/mL.
The compound `C[C@@](CCc1cc(C2=CCCCC2)on1)(C(=O)NO)S(C)(=O)=O` [Compound 4.8, (R)-4-(5-(cyclohex-1-en-1-yl)isoxazol-3-yl)-N-hydroxy-2-methyl-2-(methylsulfonyl)butanamide] returned an IC50 against P. aeruginosa LpxC of under 1 nM. Further, the MIC is 4 µg/mL with E. C. ATCC 25922 (setting [3]), over 64 µg/mL in the assay with A. B. ATCC 19606 [1] (setting [4]) and 0.25 µg/mL in the assay with P. A. PAO1 NB52019 (setting [5]). Also, in the assay with E. C. ATCC 29522, the “E. C. ATCC 29522 (+2 μg/ml RIF) MIC” value worked out at 0.5 µg/mL. In addition, in the assay with A. B. ATCC 19606 [2], the “A. B. ATCC 19606 (+2 μg/ml RIF) MIC” value stood at 1 µg/mL.

(Values after patent US10029994B2, “Isoxazole hydroxamic acid compounds as LpxC inhibitors” (priority 2014, dated 2018).)
